In US20220402950A1, “SUBSTITUTED BENZIMIDAZOLES AS PAD4 INHIBITORS” (BRISTOL-MYERS SQUIBB COMPANY, priority 2018, published 2022):

molecular target: human PAD4 (hPAD4) (Homo sapiens, UniProt Q9UM07); assay: RFMS Human PAD4 Functional Assay; assay type: biochemical; settings: hPAD4 RFMS IC50, human PAD4, rapid-fire mass spectrum (RFMS) assay; 5 nM hPAD4, 250 μM BAEE
In short: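 RapidFire ESI-MS quantification, normalised to a modified-citrulline internal standard, after phenyl glyoxal (final 4 mM) derivatisation of the TCA-quenched reaction. The enzyme (10 nM) sat 30 min with compound (up to 50 μM final) before 500 μM BAEE (as added) started a 90 min, 37 °C reaction. Buffer: HEPES pH 7.5, 50 μM calcium, 5 μM TPEN.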

human PAD4 (hPAD4), sequence (Q9UM07 whole entry): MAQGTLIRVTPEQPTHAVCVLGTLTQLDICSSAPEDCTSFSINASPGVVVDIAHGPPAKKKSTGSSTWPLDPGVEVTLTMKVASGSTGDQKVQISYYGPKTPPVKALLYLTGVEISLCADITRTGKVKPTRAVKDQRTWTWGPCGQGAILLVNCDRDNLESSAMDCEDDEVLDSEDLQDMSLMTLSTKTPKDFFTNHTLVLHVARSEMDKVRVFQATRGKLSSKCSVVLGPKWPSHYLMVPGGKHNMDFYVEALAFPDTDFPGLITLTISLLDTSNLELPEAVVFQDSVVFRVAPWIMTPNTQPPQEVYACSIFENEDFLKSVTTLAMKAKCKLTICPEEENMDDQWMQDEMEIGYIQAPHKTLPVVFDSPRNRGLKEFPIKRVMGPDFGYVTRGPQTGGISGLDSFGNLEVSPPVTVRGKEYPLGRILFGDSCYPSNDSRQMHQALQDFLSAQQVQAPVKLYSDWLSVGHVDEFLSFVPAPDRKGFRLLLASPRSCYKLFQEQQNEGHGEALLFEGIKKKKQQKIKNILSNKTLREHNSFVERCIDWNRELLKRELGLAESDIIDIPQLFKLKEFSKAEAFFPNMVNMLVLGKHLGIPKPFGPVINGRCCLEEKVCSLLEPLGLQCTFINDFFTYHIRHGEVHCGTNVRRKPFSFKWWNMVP

Compound | IC50
COc1ccc(NC(=O)N2CCC(c3cccc4cc(-c5nc6cc(C(=O)N7C[C@H]8CC[C@@H]7[C@@H]8N)cc(OC)c6n5C)n(CC5CC5)c34)CC2)cc1 [Example 246, 4-(2-(5-((1R,4R,7R)-7-amino-2-azabicyclo[2.2.1]heptane-2-carbonyl)-7-methoxy-1-methyl-1H-benzo[d]imidazol-2-yl)-1-(cyclopropylmethyl)-1H-indol-7-yl)-N-(4-methoxyphenyl)piperi-dine-1-carboxamide] | 6 nM
COc1cc(C(=O)N2C[C@H]3CC[C@@H]2[C@@H]3N)cc2nc(-c3cc4cccc(-c5ccc(C(N)=O)cc5F)c4n3CC3CC3)n(C)c12 [Example 191, 4-(2-(5-((1R,4R,7R)-7-amino-2-azabicyclo[2.2.1]heptane-2-carbonyl)-7-methoxy-1-methyl-1H-benzo[d]imidazol-2-yl)-1-(cyclopropylmethyl)-1H-indol-7-yl)-3-fluorobenzamide] | 81 nM
COc1cc(C(=O)N2C[C@H]3CC[C@@H]2[C@@H]3N)cc2nc(-c3cc4cccc(C5CCCN(C(N)=O)C5)c4n3CC3CC3)n(C)c12 (stereo partly drawn) [Example 39, 3-(2-{5-[(1R,4R,7R)-7-amino-2-azabicyclo[2.2.1]heptane-2-carbonyl]-7-methoxy-1-methyl-1H-1,3-benzodiazol-2-yl}-1-(cyclopropylmethyl)-1H-indol-7-yl)piperidine-1-carboxamide] | 51 nM
COc1cc(C(=O)N2C[C@H]3CC[C@@H]2[C@@H]3N)cc2nc(-c3cc4cccc(Nc5cn(C)nc5C)c4n3CC3CC3C)n(C)c12 (stereo partly drawn) [Example 177, ((1R,4R,7R)-7-amino-2-azabicyclo[2.2.1]heptan-2-yl)(2-(7-((1,3-dimethyl-1H-pyrazol-4-yl)amino)-1-((2-methylcyclopropyl)meth-yl)-1H-indol-2-yl)-7-methoxy-1-methyl-1H-benzo[d]imidazol-5-yl)methanone] | 40 nM
COc1cc(C(=O)N2CC3CCC2C3N)cc2nc(-c3cc4cccc(Nc5ccccc5P(C)(C)=O)c4n3CC3CC3)n(C)c12 (stereo not drawn) [Example 166, (7-amino-2-azabicyclo[2.2.1]heptan-2-yl)(2-(1-(cyclopropylmethyl)-7-((2-(dimethylphosphoryl)phe-nyl)amino)-1H-indol-2-yl)-7-methoxy-1-methyl-1H-benzo[d]imidazol-5-yl)methanone] | 171 nM
COc1cc(C(=O)N2CC3CCC2[C@@H]3N)cc2nc(-c3cc4cccc(-c5cnn(C6CCOCC6)c5)c4n3CC3CC3)n(C)c12 (stereo partly drawn) [Example 132, ((7R)-7-amino-2-azabicyclo[2.2.1]heptan-2-yl)(2-(1-(cyclopropylmethyl)-7-(1-(tetrahydro-2H-pyran-4-yl)-1H-pyrazol-4-yl)-1H-indol-2-yl)-7-methoxy-1-methyl-1H-benzo[d]imidazol-5-yl)methanone] | 179 nM
COc1cc(C(=O)N2C[C@H]3CC[C@@H]2[C@@H]3N)cc2nc(-c3cc4cccc(NCCC(C)(C)O)c4n3CC3CC3)n(C)c12 [Example 169, ((1R,4R,7R)-7-amino-2-azabicyclo[2.2.1]heptan-2-yl)(2-(1-(cyclopropylmethyl)-7-((3-hydroxy-3-methylbutyl)amino)-1H-indol-2-yl)-7-methoxy-1-methyl-1H-benzo[d]imidazol-5-yl)methanone] | 198 nM
COc1cc(C(=O)N2C[C@H]3CC[C@@H]2[C@@H]3N)cc2nc(-c3cc4cccc(C5CC(C(=O)N6CCCC6)C5)c4n3CC3CC3)n(C)c12 (single isomer, unassigned) [Example 49] | 34 nM
COc1cc(C(=O)N2CC3CCC2[C@@H]3N)cc2nc(-c3cc4cccc(-c5ccoc5)c4n3CC3CC3)n(C)c12 (stereo partly drawn) [Example 129, ((7R)-7-amino-2-azabicyclo[2.2.1]heptan-2-yl)(2-(1-(cyclopropylmethyl)-7-(furan-3-yl)-1H-indol-2-yl)-7-methoxy-1-methyl-1H-benzo[d]imidazol-5-yl)methanone] | 194 nM
COc1cc(C(=O)N2C[C@H](N)C[C@@H](F)C2)cc2nc(-c3cc4cccc(C5CC(C(=O)N6CCCC6)C5)c4n3CC3CC3)n(C)c12 (single isomer, unassigned) [Example 116] | 95 nM
COc1cc(C(=O)N2C[C@H]3CC[C@@H]2[C@@H]3N)cc2nc(-c3cc4cccc(Nc5c(C)n[nH]c5C)c4n3CC3CC3)n(C)c12 [Example 172, ((1R,4R,7R)-7-amino-2-azabicyclo[2.2.1]heptan-2-yl)(2-(1-(cyclopropylmethyl)-7-((3,5-dimethyl-1H-pyrazol-4-yl)amino)-1H-indol-2-yl)-7-methoxy-1-methyl-1H-benzo[d]imidazol-5-yl)methanone] | 43 nM
COc1cc(C(=O)N2C[C@H]3CC[C@@H]2[C@@H]3N)cc2nc(-c3cc4cccc(C5CCN(C(N)=O)CC5)c4n3CC3CC3)n(C)c12 [Example 251, 4-(2-(5-((1R,4R,7R)-7-amino-2-azabicyclo[2.2.1]heptane-2-carbonyl)-7-methoxy-1-methyl-1H-benzo[d]imidazol-2-yl)-1-(cyclopropylmethyl)-1H-indol-7-yl)piperidine-1-carboxamide] | 20 nM
COc1cc(C(=O)N2C[C@H]3CC[C@@H]2[C@@H]3N)cc2nc(-c3cc4cccc(CCn5cncn5)c4n3CC3CC3)n(C)c12 [Example 29, (1R,4R,7R)-2-{2-[1-(cyclopropylmethyl)-7-[2-(1H-1,2,4-triazol-1-yl)ethyl]-1H-indol-2-yl]-7-methoxy-1-methyl-1H-1,3-benzodiazole-5-carbonyl}-2-azabicyclo[2.2.1]heptan-7-amine] | 56 nM
COc1cc(C(=O)N2C[C@H]3CC[C@@H]2[C@@H]3N)cc2nc(-c3cc4cccc(C5CC(C(=O)N6CC(F)C6)C5)c4n3CC3CC3)n(C)c12 (single isomer, unassigned; isomer 1) [Example 200] | 21 nM
COc1cc(C(=O)N2C[C@H]3CC[C@@H]2[C@@H]3N)cc2nc(-c3cc4cccc(C5CC(C(=O)N6CC(F)C6)C5)c4n3CC3CC3)n(C)c12 (single isomer, unassigned; isomer 2) [Example 201] | 57 nM
COc1cc(C(=O)N2C[C@H]3CC[C@@H]2[C@@H]3N)cc2nc(-c3cc4cccc(-c5ccc6[nH]c(=O)ccc6c5)c4n3CC3CC3)n(C)c12 [Example 100, 6-(2-{5-[(1R,4R,7R)-7-amino-2-azabicyclo[2.2.1]heptane-2-carbonyl]-7-methoxy-1-methyl-1H-1,3-benzodiazol-2-yl}-1-(cyclopropylmethyl)-1H-indol-7-yl)-1,2-dihydroquinolin-2-one] | 58 nM

same assay, conditions: human PAD4, rapid-fire mass spectrum (RFMS) assay; 5 nM hPAD4, 250 μM BAEE; read-out: hPAD4 RFMS IC50

Compound | IC50
COc1cc(C(=O)N2C[C@H]3CC[C@@H]2[C@@H]3N)cc2nc(-c3cc4cccc(C#N)c4n3CC3CC3)n(C)c12 [Example 183, 2-(5-((1R,4R,7R)-7-amino-2-azabicyclo[2.2.1]heptane-2-carbonyl)-7-methoxy-1-methyl-1H-benzo[d]imidazol-2-yl)-1-(cyclopropylmethyl)-1H-indole-7-carbonitrile] | 128 nM
COc1cc(C(=O)N2C[C@H]3CC[C@@H]2[C@@H]3N)cc2nc(-c3cc4cccc(-c5ccccc5CO)c4n3CC3CC3)n(C)c12 [Example 181, ((1R,4R,7R)-7-amino-2-azabicyclo[2.2.1]heptan-2-yl)(2-(1-(cyclopropylmethyl)-7-(2-(hydroxymethyl)phenyl)-1H-indol-2-yl)-7-methoxy-1-methyl-1H-benzo[d]imidazol-5-yl)methanone] | 127 nM
